Values of other authors as cited in PubChem BioAssay AID1259409 (Chemical Carcinogenesis Research Information System (CCRIS), 2018).

System: rodent chemically induced tumor inhibition, incidence and multiplicity
Test: CCRIS tumor inhibitor studies

c1cc2ccc3cccc4ccc(c1)c2c34
tumour outcome (control, treated, inhibition, significance) (Carcinogen: BENZO[A]PYRENE, 50-32-8, Dose [Inhibitor]: 4 UG IN 0.1 ML ACETONE 3/WK ADMINISTERED SIMULTANEOUSLY WITH CARCINOGEN FOR DURATION OF STUDY (STUDY DURATION: 368 D), Route [Inhibitor]: DERMAL, Species: MOUSE, Strain/Sex: ICR/FEMALE, Target Tissue: Type of Lesion: SKIN: PAPILLOMA, Dose [Carcinogen]: 5 UG IN 0.1 ML ACETONE 3/WK FOR DURATION OF STUDY, Promoter: NONE USED): 14/50 (28%), 12/50 (24%), 14%, not calculated | tumour outcome (control, treated, inhibition, significance) (Carcinogen: BENZO[A]PYRENE, 50-32-8, Dose [Inhibitor]: 4 UG IN 0.1 ML ACETONE 3/WK ADMINISTERED SIMULTANEOUSLY WITH CARCINOGEN FOR DURATION OF STUDY (STUDY DURATION: 368 D), Route [Inhibitor]: DERMAL, Species: MOUSE, Strain/Sex: ICR/FEMALE, Target Tissue: Type of Lesion: SKIN: SQUAMOUS CARCINOMA, Dose [Carcinogen]: 5 UG IN 0.1 ML ACETONE 3/WK FOR DURATION OF STUDY, Promoter: NONE USED): 10/50 (20%), 6/50 (12%), 40%, not calculated | tumour outcome (control, treated, inhibition, significance) (Carcinogen: BENZO[A]PYRENE, 50-32-8, Dose [Inhibitor]: 12 UG IN 0.1 ML ACETONE 3/WK ADMINISTERED SIMULTANEOUSLY WITH CARCINOGEN FOR DURATION OF STUDY (STUDY DURATION: 368 D), Route [Inhibitor]: DERMAL, Species: MOUSE, Strain/Sex: ICR/FEMALE, Target Tissue: Type of Lesion: SKIN: PAPILLOMA, Dose [Carcinogen]: 5 UG IN 0.1 ML ACETONE 3/WK FOR DURATION OF STUDY, Promoter: NONE USED): 14/50 (28%), 26/50 (52%), -86%, not calculated | tumour outcome (control, treated, inhibition, significance) (Carcinogen: BENZO[A]PYRENE, 50-32-8, Dose [Inhibitor]: 12 UG IN 0.1 ML ACETONE 3/WK ADMINISTERED SIMULTANEOUSLY WITH CARCINOGEN FOR DURATION OF STUDY (STUDY DURATION: 368 D), Route [Inhibitor]: DERMAL, Species: MOUSE, Strain/Sex: ICR/FEMALE, Target Tissue: Type of Lesion: SKIN: SQUAMOUS CARCINOMA, Dose [Carcinogen]: 5 UG IN 0.1 ML ACETONE 3/WK FOR DURATION OF STUDY, Promoter: NONE USED): 10/50 (20%), 20/50 (40%), -100%, not calculated | tumour outcome (control, treated, inhibition, significance) (Carcinogen: BENZO[A]PYRENE, 50-32-8, Dose [Inhibitor]: 40 UG IN 0.1 ML ACETONE 3/WK ADMINISTERED SIMULTANEOUSLY WITH CARCINOGEN FOR DURATION OF STUDY (STUDY DURATION: 440 D), Route [Inhibitor]: DERMAL, Species: MOUSE, Strain/Sex: ICR/FEMALE, Target Tissue: Type of Lesion: SKIN: PAPILLOMA, Dose [Carcinogen]: 5 UG IN 0.1 ML ACETONE 3/WK FOR DURATION OF STUDY, Promoter: NONE USED): 16/50 (32%), 35/50 (70%), -119%, not calculated | tumour outcome (control, treated, inhibition, significance) (Carcinogen: BENZO[A]PYRENE, 50-32-8, Dose [Inhibitor]: 40 UG IN 0.1 ML ACETONE 3/WK ADMINISTERED SIMULTANEOUSLY WITH CARCINOGEN FOR DURATION OF STUDY (STUDY DURATION: 440 D), Route [Inhibitor]: DERMAL, Species: MOUSE, Strain/Sex: ICR/FEMALE, Target Tissue: Type of Lesion: SKIN: SQUAMOUS CARCINOMA, Dose [Carcinogen]: 5 UG IN 0.1 ML ACETONE 3/WK FOR DURATION OF STUDY, Promoter: NONE USED): 12/50 (24%), 26/50 (52%), -117%, not calculated

C[C@H](CCC(=O)O)[C@H]1CC[C@H]2[C@@H]3[C@@H](O)C[C@@H]4C[C@H](O)CC[C@]4(C)[C@H]3CC[C@]12C
tumour outcome (control, treated, inhibition, significance) (Carcinogen: AZOXYMETHANE, 25843-45-2, Dose [Inhibitor]: 0, 0.2% IN DIET FOR 28 WK BEGINNING 2 WK PRIOR TO CARCINOGEN TREATMENT (STUDY DURATION: 30 WK), Route [Inhibitor]: ORAL, Species: RAT, Strain/Sex: F344/MALE, Target Tissue: Type of Lesion: COLON: TUMOR, Dose [Carcinogen]: 15 MG/KG BW 1/WK FOR 2 WK, Promoter: CHOLIC ACID, 81-25-4): 30/47 (64%), 20/47 (43%), 33%, not significant | tumour outcome (control, treated, inhibition, significance) (Carcinogen: AZOXYMETHANE, 25843-45-2, Dose [Inhibitor]: 0, 0.2% IN DIET FOR 28 WK BEGINNING 2 WK PRIOR TO CARCINOGEN TREATMENT (STUDY DURATION: 30 WK), Route [Inhibitor]: ORAL, Species: RAT, Strain/Sex: F344/MALE, Target Tissue: Type of Lesion: COLON: TUMOR, Dose [Carcinogen]: 15 MG/KG BW 1/WK FOR 2 WK, Promoter: NONE USED): 20/43 (47%), 23/48 (48%), -2%, not significant | tumour outcome (control, treated, inhibition, significance) (Carcinogen: AZOXYMETHANE, 25843-45-2, Dose [Inhibitor]: 0, 0.4% IN DIET FOR 28 WK BEGINNING 2 WK PRIOR TO CARCINOGEN TREATMENT (STUDY DURATION: 30 WK), Route [Inhibitor]: ORAL, Species: RAT, Strain/Sex: F344/MALE, Target Tissue: Type of Lesion: COLON: TUMOR, Dose [Carcinogen]: 15 MG/KG BW 1/WK FOR 2 WK, Promoter: NONE USED): 20/43 (47%), 10/45 (22%), 53%, p<0.05

CO[C@@]12[C@H](COC(N)=O)C3=C(C(=O)C(C)=C(N)C3=O)N1C[C@@H]1N[C@@H]12
tumour outcome (control, treated, inhibition, significance) (Carcinogen: N-BUTYL-N-(4-HYDROXYBUTYL)NITROSAMINE, 3817-11-6, Dose [Inhibitor]: 0.5 ML (2000 UG/ML) INSTILLED TRANSURETHRALLY 2/WK FOR 2 WK POST CARCINOGEN DOSE (STUDY DURATION: 20 WK), Route [Inhibitor]: INTRAVESICAL, Species: RAT, Strain/Sex: WISTAR/MALE, Target Tissue: Type of Lesion: BLADDER: CARCINOMA, Dose [Carcinogen]: 0.05% IN DRINKING WATER FOR 12 WK, Promoter: NONE USED): 14/20 (70%), 8/10 (80%), -14%, not calculated | tumour outcome (control, treated, inhibition, significance) (Carcinogen: N-BUTYL-N-(4-HYDROXYBUTYL)NITROSAMINE, 3817-11-6, Dose [Inhibitor]: 0.5 ML (2000 UG/ML) INSTILLED TRANSURETHRALLY 2/WK FOR 2 WK POST CARCINOGEN DOSE (STUDY DURATION: 20 WK), Route [Inhibitor]: INTRAVESICAL, Species: RAT, Strain/Sex: WISTAR/MALE, Target Tissue: Type of Lesion: BLADDER: PAPILLOMA, Dose [Carcinogen]: 0.05% IN DRINKING WATER FOR 12 WK, Promoter: NONE USED): 6/20 (30%), 2/10 (20%), 33%, not calculated | tumour outcome (control, treated, inhibition, significance) (Carcinogen: N-BUTYL-N-(4-HYDROXYBUTYL)NITROSAMINE, 3817-11-6, Dose [Inhibitor]: 2000 UG/ML INSTILLED CONTINUOUSLY FOR 2 WK POST CARCINOGEN DOSE (STUDY DURATION: 12 WK), Route [Inhibitor]: INTRAVESICAL, Species: RAT, Strain/Sex: WISTAR/MALE, Target Tissue: Type of Lesion: BLADDER: CARCINOMA, Dose [Carcinogen]: 0.05% IN DRINKING WATER FOR 12 WK, Promoter: NONE USED): 14/20 (70%), 2/10 (20%), 71%, not calculated | tumour outcome (control, treated, inhibition, significance) (Carcinogen: N-BUTYL-N-(4-HYDROXYBUTYL)NITROSAMINE, 3817-11-6, Dose [Inhibitor]: 2000 UG/ML INSTILLED CONTINUOUSLY FOR 2 WK POST CARCINOGEN DOSE (STUDY DURATION: 12 WK), Route [Inhibitor]: INTRAVESICAL, Species: RAT, Strain/Sex: WISTAR/MALE, Target Tissue: Type of Lesion: BLADDER: PAPILLOMA, Dose [Carcinogen]: 0.05% IN DRINKING WATER FOR 12 WK, Promoter: NONE USED): 6/20 (30%), 2/10 (20%), 33%, not calculated
